Experiments:
[1] = test system: antigen-induced histamine release; test: Passive peritoneal anaphylaxis (PPA) in rats: histamine release; type: in vivo, male Wistar rats; conditions: 100 μg/kg i.p.; for inhibition at 0.1 mg/kg: Rattus norvegicus, ip, 30 sec before antigen, histamine, DSCG value is mean of 3 rats (footnote 1)
Procedure: (A) Passive peritoneal anaphylaxis (PPA) in rats The method was based on that of Orange et al^(1). […] After 4 hr, 5 ml of Tyrode solution containing 250 μg heparin and 2 mg DNP-BSA was injected i.p. Test drugs (100 μg/kg) were dissolved in 0.6 ml of saline and injected i.p. 30 sec before antigen administration. Five min. later, the rats were decapitated and the peritoneal fluid was collected by opening the peritoneal cavity into polycarbonate tubes in ice. The supernatant was separated for bioassay from the cellular residue by centrifugation at 2000 rpm for 5 min at 4° C. […] One unit of SRS-A refers to the concentration required to produce a contraction of the guinea-pig ileum equal in amplitude to that produced by 5 ng histamine base in that assay.

[2] = test system: antigen-induced SRS-A release; test: Passive peritoneal anaphylaxis (PPA) in rats: SRS-A release; type: in vivo, male Wistar rats; conditions: Rattus norvegicus, ip, 100 μg/kg i.p., 30 sec before antigen, DSCG value is mean of 3 rats (footnote 1)
Procedure: (A) Passive peritoneal anaphylaxis (PPA) in rats
The method was based on that of Orange et al^(1). Briefly, male Wistar rats weighing 275 to 325 g (Shizuoka Exp. Animal Agric, Coop. Assoc.) were sensitized by intraperitoneally (i.p.) injecting 5 ml of diluted (40-fold) mouse anti-DNP reaginic serum (PCA titer: 1280). After 4 hr, 5 ml of Tyrode solution containing 250 μg heparin and 2 mg DNP-BSA was injected i.p. Test drugs (100 μg/kg) were dissolved in 0.6 ml of saline and injected i.p. 30 sec before antigen administration. Five min. later, the rats were decapitated and the peritoneal fluid was collected by opening the peritoneal cavity into polycarbonate tubes in ice. The supernatant was separated for bioassay from the cellular residue by centrifugation at 2000 rpm for 5 min at 4° C.
Histamine and SRS-A were assayed using isolated guinea-pig ileum in the presence of 10^-7 M FPL-55712 and 10^-6 M mepyramine, respectively, in addition to 5×10^-7 M atropine. One unit of SRS-A refers to the concentration required to produce a contraction of the guinea-pig ileum equal in amplitude to that produced by 5 ng histamine base in that assay.

[3] = target: T1, 5-lipoxygenase (Mus musculus, UniProt P48999); test: Assay of 5-lipoxygenase; type: biochemical; conditions: enzyme fraction from mastocytoma P-815 cells, [1-14C]-arachidonic acid, 37° C., 5 min; Probit method; read-out: IC 50 5-Lipoxygenase
T1 construct: endogenous in cells
T1 sequence (P48999 1-674): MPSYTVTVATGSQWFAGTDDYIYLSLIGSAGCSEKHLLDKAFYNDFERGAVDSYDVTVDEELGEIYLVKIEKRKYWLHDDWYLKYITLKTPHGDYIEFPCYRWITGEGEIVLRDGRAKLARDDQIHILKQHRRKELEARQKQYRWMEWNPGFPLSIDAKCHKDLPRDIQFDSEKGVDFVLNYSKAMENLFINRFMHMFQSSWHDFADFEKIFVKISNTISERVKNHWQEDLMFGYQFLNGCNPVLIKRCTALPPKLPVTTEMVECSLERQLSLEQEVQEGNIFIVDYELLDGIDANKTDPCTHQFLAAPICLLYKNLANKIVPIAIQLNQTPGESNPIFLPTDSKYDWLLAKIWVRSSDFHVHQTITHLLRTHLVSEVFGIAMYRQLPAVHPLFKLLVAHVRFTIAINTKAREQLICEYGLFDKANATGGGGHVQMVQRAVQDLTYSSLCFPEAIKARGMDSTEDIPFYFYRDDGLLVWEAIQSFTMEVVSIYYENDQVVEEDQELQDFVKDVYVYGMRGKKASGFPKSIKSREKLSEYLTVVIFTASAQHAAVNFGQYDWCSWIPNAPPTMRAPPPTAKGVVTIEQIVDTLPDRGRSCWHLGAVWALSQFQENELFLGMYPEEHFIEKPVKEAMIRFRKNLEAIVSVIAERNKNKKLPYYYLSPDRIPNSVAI
Procedure: (§1) (B) Assay of 5-lipoxygenase and cyclooygenase
(§2) The method was based on that of Koshihara et al^(1). In the case of assay of 5-lipoxygenase activity, an enzyme fraction from mastocytoma P-815 cells (10^7 cells/ml) was incubated with 0.2 μCi [1-^14 C]-arachidonic acid (56.9 Ci/mol), 0.8 mM CaCl2, 2×10^-5 M indoemthacin and various concentrations of test drugs at 37° C. for 5 min. In the case of assay of cyclooxygenase activity, CaCl2 and indomethacin were omitted from the above incubation mixture and incubation was performed at 37° C. for 7 min. Both reactions were terminated by adjusting the pH of the mixture to 3.0 with HCl. After extraction of the products with 8 volume ethyl acetate, each extract was concentrated and applied to TLC plate. For the separation of HETEs and prostaglandins, thin-layer chromatography was carried out using the solvent system: petroleum ether/diethyl ether/acetic acid (50:50:1) and ethyl acetate/2,2,4-trimethylpentane/acetic acid/water (11:5:2:10, upper phase), respectively. Radioactive spots were detected by autoradiography and scraped off and counted using a liquid scintillation spectrometer. The activities of 5-lipoxygenase and cyclooxygenase were expressed as the sum of radioactivities due to 5-HETE and 5,12-diHETE and due to PGD2, PGE2 and PGF2α, respectively. The IC 50 values were calculated by Probit method.

[4] = target: cyclooxygenase; test: Assay of cyclooxygenase; type: biochemical; conditions: enzyme fraction from mastocytoma P-815 cells, [1-14C]-arachidonic acid, 37° C., 7 min, Probit method; for IC50: read-out: IC 50 Cyclooxygenase
Procedure: as §1, §2

| IC50 [3] [nM] | IC 50 Cyclooxygenase [4] | IC50 [4] [nM] | Structure (SMILES) | inhibition at 0.1 mg/kg [1] [%] | inhibition of histamine release (selectivity versus SRS-A) ([1]; rat PPA) | inhibition at 0.1 mg/kg [2] [%] |
| --- | --- | --- | --- | --- | --- | --- |
| – | – | – | O=C(O)c1cc(=O)c2c(OCC(O)COc3cccc4oc(C(=O)O)cc(=O)c34)cccc2o1 [DSCG, disodium cromoglycate, reference compound] | 75.2 | inhibited the histamine release in a relatively selective manner | 46.6 |
| 300 | En- hanced | – | CCCCC(C)C(O)CCc1ccc(O)c(O)c1 (centres unmarked) [Example 1, 1-(3,4-dihydroxyphenyl)-4-methyl-3-octanol] | 37.8 | – | 76.6 |
| – | – | – | CCCCCCC(O)CCc1ccc(O)c(O)c1 (centres unmarked) [Example 2, 1-(3,4-dihydroxyphenyl)-3-nonanol] | 5.2 | – | 57.3 |
| – | – | – | CCCCCCC(=O)CCc1ccc(O)c(O)c1 [Example 3, 1-(3,4-dihydroxyphenyl)-3-nonanone] | 22.6 | – | 53.9 |
| 100 | – | > 10000 | CCCCCCCCC(O)CCc1ccc(O)c(O)c1 (centres unmarked) [Example 9, 1-(3,4-Dihydroxyphenyl)-3-undecanol] | 21.6 | – | 53.6 |
| – | – | – | CCCCCC(C)C(O)CCc1ccc(O)c(O)c1 (centres unmarked) [Example 11, 1-(3,4-Dihydroxyphenyl)-4-methyl-3-nonanol] | 17.6 | – | 66.6 |
| – | – | – | CCCCCCCCCC(=O)Cc1ccc(O)c(O)c1 [Example 14, 1-(3,4-dihydroxyphenyl)-2-undecanone] | 32.7 | – | 58.9 |
| – | – | – | CCCCCCC(O)CCCc1ccc(O)c(O)c1 (centres unmarked) [Example 15, 1-(3,4-dihydroxyphenyl)-4-decanol] | 18.4 | – | 46.2 |
| 230 | – | – | CC(=O)CCCCCCCc1ccc(O)c(O)c1 [Example 20, 9-(3,4-dihydroxyphenyl)-2-nonanone] | 17.9 | – | 62.8 |
| 54 | – | > 10000 | OCCCCCCCCCCCc1ccc(O)c(O)c1 [Example 23, 11-(3,4-dihydroxyphenyl)-1-undecanol] | 10.7 | – | 69.6 |
| – | – | – | OCCCCCCCCCc1ccc(O)c(O)c1 [Example 25A, 9-(3,4-Dihydroxyphenyl)-1-nonanol] | -8.3 | – | 43.9 |
| – | – | – | CCCCCC(C)C(=O)C=Cc1ccc(O)c(O)c1 (centres unmarked) [Example 29, 1-(3,4-dihydroxyphenyl)-4-methyl-1-nonen-3-one] | -32.4 | – | 38.2 |

— patent US4618627A, “Catechol derivatives and pharmaceutical compositions thereof for inhibiting anaphylaxis (SRS-A)” (priority 1983, dated 1986)
